Among the data in US20060116390A1, “Hepatitis c virus inhibitors” (priority 2003, published 2006) are IC50 values, retold here.

In the experiment the test system is HCV proteins in Rep5.1 cells (replicon cell line). Kind of experiment: Inhibitory activity of HCV: cell-based ELISA in replicon cell line Rep5.1 (decrease of HCV proteins). The arrangement: species or system hepatitis C virus. Conditions: Rep5.1 cells, 72 hours with drug. The procedure:
In order to, screen and evaluate the anti-HCV therapeutic agents in cell level, the following experiments are carried out using a replicon cell line, Rep5.1 [Lohmann, et al., Replication of subgenomic hepatitis C virus RNAs in a hepatoma cell line. Science 285:110-113 (1999)].
Rep5.1 cells, the replicon cell line, are cultured in DMEM-10 containing 500 μg/ml of G418. The Rep5.1 cells in log phase are suspended by trypsin treatment, and 5000 cells are distributed to each well of a 96-well plate. After 4 hours when the cells are attached to the plate, the serially diluted drug is added to each well. After 48 hours, a part of the treated cells are observed by microscope, and MTT assay is carried out to evaluate the drug toxicity. The cytotoxicity is estimated in percentage based on the control containing no drug. After 72 hours, the remaining cells are fixed by methanol/acetone (50/50, v/v), and the decrease of HCV proteins is measured by using HCV antibody. The extent of decrease is estimated in percentage based on the control containing no drug, and the concentration of drug at which 50% of proteins is decreased is determined to be IC50. The compounds showing activity via this procedure are validated by Western blotting. In order to find out whether the decrease of HCV protein is related to the decrease of replicon RNA, Rep5.1 cell is treated with some selected drugs for 72 hours, RNA is purified, dot blotted, and hybridized with isotope labelled nucleic acid to determine the amounts of actin mRNA and replicon RNA, and finally the amount of RNA is compared.
Plasma samples from 300 persons positive to the hepatitis C antibody test were screened by antibody diagnosis kit produced by LG life Sciences Ltd. (LG HCD3.0 TMB) to select 40 plasma samples having high titer. Replicon cell line and Huh-7 cell line each were cultured in a 96-well cell culture plate, fixed by methanol/acetone (1:1) mixture, and blocked by 3% skimmed milk. The 40 plasma sanples selected above were 100-fold diluted and aided thereto, and the bound antibodies were probed by anti-Human goat antibody (Sigma) to which Horse Radish Peroxidase is attached. As a result, 12 plasma samples having low specificity to Huh-7 cell line, but high specificity to replicon cell line were obtained. These plasma samples were used in the following cell-based ELISA.
Rep5.1 cells were cultured in DMEM-10 containing 500 μg/ml of G418. The Rep5.1 cells in log phase were suspended by trypsin treatment, and 5000 cells were distributed to each well of a 96-well pate. After 4 hours for which the cells were attached to the plate, the serially diluted drug was added to each well. After 72 hours, the cells were fixed by methanol/acetone (50/50, v/v), and the decrease of HCV proteins was measured by using HCV antibody obtained as above. The extent of decrease was estimated in percentage based on the control containing no drug, and the concentration of drug at which 50% of proteins was decreased was determined to be IC50.
(In an ELISA, binding on a coated surface is turned into a signal by an enzyme label.)

[1] abbreviates: concentration at which 50% of HCV proteins was decreased, Table 2, read-out: IC50.
[2] abbreviates: Hepatitis C virus, 72 h, concentration at which 50% of HCV proteins was decreased, Table 2, read-out: IC50.
[3] abbreviates: Hepatitis C virus, 72 h, decrease of HCV proteins measured by HCV antibody, Table 1, read-out: Level (IC50 values classified).

Where two headings read alike, the source gives them in different places.

As usually defined, the IC50 is the concentration that gives 50% inhibition. For the compound `CC1=C(C(=O)O[C@H](C)c2ccccc2)CNC(=S)N1` (racemic) [Compound 26, 6-methyl-2-thioxo-1,2,3,4-tetrahydro-pyrimidine-5-carboxylic acid (R,S)-1-phenyl-ethyl ester], the half-maximal inhibitory concentration (IC50) under setting [1] was determined as 3 µM.

In the case of `CC1=C(C(=O)OCCc2ccsc2F)C(CF)NC(=S)N1` (centres unmarked) [1′, 4-fluoromethyl-6-methyl-2-thioxo-1,2,3,4-tetrahydro-pyrimidine-5-carboxylic acid 2-(2-fluoro-thiophen-3-yl)-ethyl ester], the half-maximal inhibitory concentration (IC50) is 1.8 µM under setting [2] and 1 to 10 µM under setting [3].

For `CC1=C(C(=O)OCCc2ccc(Cl)s2)C(CO)NC(=S)N1` (centres unmarked) [1″, 4-hydroxymethyl-6-methyl-2-thioxo-1,2,3,4-tetrahydro-pyrimidine-5-carboxylic acid 2-(5-chloro-thiophen-2-yl)-ethyl ester], the IC50 reads like this: under setting [2], 1.6 µM; under setting [3], 1 to 10 µM.

Consider `CC1=C(C(=O)OCCC2CC2)CNC(=S)N1` [2′, 6-methyl-2-thioxo-1,2,3,4-tetrahydro-pyrimidine-5-carboxylic acid 2-cyclopropyl-ethyl ester], for which the IC50 runs as follows: under setting [2], 2.4 µM; under setting [3], 1 to 10 µM.

Consider `COCC1NC(=S)NC(C)=C1C(=O)OCCc1ccsc1` (centres unmarked) [2″, 4-methoxymethyl-6-methyl-2-thioxo-1,2,3,4-tetrahydro-pyrimidine-5-carboxylic acid 2-thiophen-3-yl-ethyl ester], for which the concentration for half-maximal inhibition (IC50) was 35 µM under setting [2] and greater than 20 µM under setting [3].

On to `CC1=C(C(=O)OCC2CC=CCC2)CNC(=S)N1` (centres unmarked) [3′, 6-methyl-2-thioxo-1,2,3,4-tetrahydro-pyrimidine-5-carboxylic acid cyclohex-3-enylmethyl ester], for which the concentration for half-maximal inhibition (IC50) was 0.7 µM under setting [2] and less than 1 µM under setting [3].

`CC1=C(C(=O)OCCc2ccsc2)C(CO)NC(=S)N1` (centres unmarked) [3″, 4-hydroxymethyl-6-methyl-2-thioxo-1,2,3,4-tetrahydro-pyrimidine-5-carboxylic acid 2-thiophen-3-yl-ethyl ester]: the half-maximal inhibitory concentration (IC50) was 9 µM under setting [2] and 1 to 10 µM under setting [3].

Take `CC1=C(C(=O)OCCc2ccsc2)C(c2ccccc2)NC(=S)N1` (centres unmarked) [4′, 6-methyl-4-phenyl-2-thioxo-1,2,3,4-tetrahydro-pyrimidine-5-carboxylic acid 2-thiophen-3-yl-ethyl ester]: the half-inhibitory concentration (IC50) under setting [2] stood at 51 µM and the IC50 under setting [3] is greater than 20 µM.

With `CC1=C(C(=O)OCCCc2cccs2)C(CO)NC(=S)N1` (centres unmarked) [4″, 4-hydroxymethyl-6-methyl-2-thioxo-1,2,3,4-tetrahydro-pyrimidine-5-carboxylic acid 3-thiophen-2-yl-propyl ester], the half-maximal inhibitory concentration (IC50) is 2.5 µM under setting [2] and 1 to 10 µM under setting [3].

As for `CC1=C(C(=O)OCCc2cc3c(C)snc3s2)CNC(=S)N1` [5′, 6-methyl-2-thioxo-1,2,3,4-tetrahydro-pyrimidine-5-carboxylic acid 2-(3-methyl-thieno[2,3-c]isothiazol-5-yl)-ethyl ester], the IC50 was 2.5 µM under setting [2] and 1 to 10 µM under setting [3].

With `CC1=C(C(=O)OCCc2ccc(F)cc2)C(CO)NC(=S)N1` (centres unmarked) [5″, 4-hydroxymethyl-6-methyl-2-thioxo-1,2,3,4-tetrahydro-pyrimidine-5-carboxylic acid 2-(4-fluoro-phenyl)-ethyl ester], the IC50 is 6 µM under setting [2] and 1 to 10 µM under setting [3].

Turning to `CCOC(=O)C1NC(=S)NC(C)=C1C(=O)OCCc1ccsc1` (centres unmarked) [6′, 6-methyl-2-thioxo-1,2,3,4-tetrahydro-pyrimidine-4,5-dicarboxylic acid 4-ethyl ester 5-(2-thiophen-3-yl-ethyl) ester], the IC50 by setting is: under setting [2], greater than 100 µM; under setting [3], greater than 20 µM.

On to `CC1=C(C(=O)OCCCc2ccsc2)C(CO)NC(=S)N1` (centres unmarked) [6″, 4-hydroxymethyl-6-methyl-2-thioxo-1,2,3,4-tetrahydro-pyrimidine-5-carboxylic acid 3-thiophen-3-yl-propyl ester], for which the IC50 is 1.9 µM under setting [2] and 1 to 10 µM under setting [3].

As for `CC1=C(C(=O)OCCc2ccsc2)C2(CCC2)NC(=S)N1` [7′, 8-methyl-6-thioxo-5,7-diaza-spiro[3,5]non-8-en-9-carboxylic acid 2-thiophen-3-yl-ethyl ester], the IC50 reads like this: under setting [2], 8 µM; under setting [3], 1 to 10 µM.

Turning to `CC1=C(C(=O)OC(C)Cc2ccsc2Br)C(CO)NC(=S)N1` (centres unmarked) [7″, 4-hydroxymethyl-6-methyl-2-thioxo-1,2,3,4-tetrahydro-pyrimidine-5-carboxylic acid 2-(2-bromo-thiophen-3-yl)-1-methyl-ethyl ester], the IC50 is 7 µM under setting [2] and 1 to 10 µM under setting [3].

Regarding `CC1=C(C(=O)OCCc2ccsc2)C(C(F)(F)F)NC(=S)N1` (centres unmarked) [8′, 6-methyl-2-thioxo-4-trifluoromethyl-1,2,3,4-tetrahydro-pyrimidine-5-carboxylic acid 2-thiophen-3-yl-ethyl ester], the IC50 is, setting by setting: under setting [2], 21 µM; under setting [3], greater than 20 µM.

As for `CC1=C(C(=O)OCc2ccccc2)C(CO)NC(=S)N1` (centres unmarked) [8″, 4-hydroxymethyl-6-methyl-2-thioxo-1,2,3,4-tetrahydro-pyrimidine-5-carboxylic acid benzyl ester], the IC50 is greater than 100 µM under setting [2] and greater than 20 µM under setting [3].

Regarding `CC1=C(C(=O)OCCCc2cccs2)CNC(=S)N1` [9′, 6-methyl-2-thioxo-1,2,3,4-tetrahydro-pyrimidine-5-carboxylic acid 3-thiophen-2-yl-propyl ester], the IC50 under setting [2] was less than 0.4 µM and the IC50 under setting [3] was less than 1 µM.

As to `COc1ccccc1CCOC(=O)C1=C(C)NC(=S)NC1CO` (centres unmarked) [9″, 4-hydroxymethyl-6-methyl-2-thioxo-1,2,3,4-tetrahydro-pyrimidine-5-carboxylic acid 2-(2-methoxy-phenyl)-ethyl ester], the IC50 under setting [2] is 20 µM and the 50% inhibitory concentration (IC50) under setting [3] was 10 to 20 µM.

Turning to `CC1=C(C(=O)OCCCc2cccs2)C(CF)NC(=S)N1` (centres unmarked) [10′, 4-fluoromethyl-6-methyl-2-thioxo-1,2,3,4-tetrahydro-pyrimidine-5-carboxylic acid 3-thiophen-2-yl-propyl ester], the IC50 reads like this: under setting [2], 1.2 µM; under setting [3], 1 to 10 µM.

Regarding `CC1=C(C(=O)OCCc2ccsc2Br)C(CO)NC(=S)N1` (centres unmarked) [10″, 4-hydroxymethyl-6-methyl-2-thioxo-1,2,3,4-tetrahydro-pyrimidine-5-carboxylic acid 2-(2-bromo-thiophen-3-yl)-ethyl ester], the 50% inhibitory concentration (IC50) is, setting by setting: under setting [2], 7 µM; under setting [3], 1 to 10 µM.

Turning to `CC1=C(C(=O)OC2Cc3cscc3C2)CNC(=S)N1` [11′, 6-methyl-2-thioxo-1,2,3,4-tetrahydro-pyrimidine-5-carboxylic acid 5,6-dihydro-4H-cyclopenta[c]thiophen-5-yl ester], the IC50 was 77 µM under setting [2] and greater than 20 µM under setting [3].

For `CCOc1ccccc1CCOC(=O)C1=C(C)NC(=S)NC1CO` (centres unmarked) [11″, 4-hydroxymethyl-6-methyl-2-thioxo-1,2,3,4-tetrahydro-pyrimidine-5-carboxylic acid 2-(2-ethoxy-phenyl)-ethyl ester], the IC50 runs as follows: under setting [2], 6 µM; under setting [3], 1 to 10 µM.

For `CC1=C(C(=O)OC2CCc3c(Cl)sc(Cl)c32)CNC(=S)N1` (centres unmarked) [12′, 6-methyl-2-thioxo-1,2,3,4-tetrahydro-pyrimidine-5-carboxylic acid 1,3-dichloro-5,6-dihydro-4H-cyclopenta[c]thiophen-4-yl ester], the half-maximal inhibitory concentration (IC50) was less than 0.4 µM under setting [2] and less than 1 µM under setting [3].

`CC1=C(C(=O)OCCc2ccc(N(C)C)cc2)C(CO)NC(=S)N1` (centres unmarked) [12″, 4-hydroxymethyl-6-methyl-2-thioxo-1,2,3,4-tetrahydro-pyrimidine-5-carboxylic acid 2-(4-dimethylamino-phenyl)-ethyl ester]: the half-inhibitory concentration (IC50) under setting [2] came to 31 µM and the IC50 under setting [3] was greater than 20 µM.

Consider `CC1=C(C(=O)OCCc2ccsc2)C2(CC2)NC(=S)N1` [13′, 7-methyl-5-thioxo-4,6-diaza-spiro[2.5]oct-7-ene-8-airboxylic acid 2-thiophen-3-yl-ethyl ester], for which the half-inhibitory concentration (IC50) under setting [1] was 79 µM.
